Experimental data taken from ChEMBL document CHEMBL1201862, “PubChem BioAssay data set” (2004).
Active and inactive are the calls of the source.

Key:
Protein Wnt-3a = Protein Wnt-3a (Mus musculus, UniProt P27467); assay: Wnt3a-driven reporter signaling inhibition, dose response, selectivity assay for Gli-SUFU antagonist project, Wnt-LIGHT cells, luminescence (AID 651570); assay type: functional; conditions: read-out: IC50_Mean;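 note: Wnt-LIGHT reporter cells stimulated with conditioned medium from Wnt3a-producing cells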
Protein Wnt-3a, sequence (P27467 whole entry): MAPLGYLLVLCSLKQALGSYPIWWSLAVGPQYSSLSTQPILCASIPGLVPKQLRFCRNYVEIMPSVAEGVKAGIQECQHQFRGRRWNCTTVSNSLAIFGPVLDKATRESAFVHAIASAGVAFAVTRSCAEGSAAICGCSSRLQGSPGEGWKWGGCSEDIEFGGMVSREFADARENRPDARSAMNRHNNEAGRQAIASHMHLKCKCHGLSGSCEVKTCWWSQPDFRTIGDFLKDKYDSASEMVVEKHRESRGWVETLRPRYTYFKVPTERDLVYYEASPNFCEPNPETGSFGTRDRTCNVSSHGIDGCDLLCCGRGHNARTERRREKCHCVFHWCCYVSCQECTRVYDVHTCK

[1] = target: T1, Apoptotic protease-activating factor 1 (Homo sapiens, UniProt O14727); assay type: functional
T1 sequence (O14727 whole entry): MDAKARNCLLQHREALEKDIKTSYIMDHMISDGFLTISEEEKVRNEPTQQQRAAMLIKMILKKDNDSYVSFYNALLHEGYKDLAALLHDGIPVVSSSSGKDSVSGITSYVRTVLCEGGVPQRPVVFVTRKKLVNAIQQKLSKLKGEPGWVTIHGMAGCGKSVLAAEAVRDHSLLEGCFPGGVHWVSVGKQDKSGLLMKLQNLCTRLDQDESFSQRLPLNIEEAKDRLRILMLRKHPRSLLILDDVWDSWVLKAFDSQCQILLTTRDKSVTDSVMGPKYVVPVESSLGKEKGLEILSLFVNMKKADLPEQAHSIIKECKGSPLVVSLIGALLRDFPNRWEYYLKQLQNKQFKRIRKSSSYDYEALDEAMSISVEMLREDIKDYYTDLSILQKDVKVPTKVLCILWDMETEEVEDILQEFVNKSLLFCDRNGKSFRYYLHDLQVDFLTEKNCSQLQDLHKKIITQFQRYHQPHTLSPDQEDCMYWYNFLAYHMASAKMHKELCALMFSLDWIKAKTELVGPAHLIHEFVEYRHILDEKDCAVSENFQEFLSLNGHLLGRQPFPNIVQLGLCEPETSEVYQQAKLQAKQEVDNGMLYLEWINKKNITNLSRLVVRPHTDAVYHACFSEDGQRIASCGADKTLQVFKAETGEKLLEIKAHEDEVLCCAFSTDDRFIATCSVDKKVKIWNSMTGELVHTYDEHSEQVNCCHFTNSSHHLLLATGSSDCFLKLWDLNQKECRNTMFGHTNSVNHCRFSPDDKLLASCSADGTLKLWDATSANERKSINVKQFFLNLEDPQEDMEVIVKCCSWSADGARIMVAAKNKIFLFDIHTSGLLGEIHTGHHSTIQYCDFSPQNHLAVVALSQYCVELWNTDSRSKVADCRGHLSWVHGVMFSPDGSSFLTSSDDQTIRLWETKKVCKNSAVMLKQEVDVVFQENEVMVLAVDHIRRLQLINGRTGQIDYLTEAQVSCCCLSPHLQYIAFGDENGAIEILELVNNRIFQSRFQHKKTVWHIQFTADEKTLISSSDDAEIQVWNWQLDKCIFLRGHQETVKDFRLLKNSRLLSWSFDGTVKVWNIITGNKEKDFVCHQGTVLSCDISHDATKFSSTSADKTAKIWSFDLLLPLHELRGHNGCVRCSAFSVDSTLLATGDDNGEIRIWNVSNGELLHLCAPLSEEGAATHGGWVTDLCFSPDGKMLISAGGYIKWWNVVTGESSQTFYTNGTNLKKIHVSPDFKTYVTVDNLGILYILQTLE

[2] = target: T2, Sentrin-specific protease 8 (Homo sapiens, UniProt Q96LD8); assay type: functional
T2 sequence (Q96LD8 whole entry): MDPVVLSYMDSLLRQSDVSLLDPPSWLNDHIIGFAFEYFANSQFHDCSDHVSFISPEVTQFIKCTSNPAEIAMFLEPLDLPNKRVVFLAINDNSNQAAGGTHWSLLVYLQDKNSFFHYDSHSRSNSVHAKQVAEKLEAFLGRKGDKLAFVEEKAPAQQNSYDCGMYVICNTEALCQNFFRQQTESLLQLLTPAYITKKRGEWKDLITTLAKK

[3] = target: T2, Sentrin-specific protease 8; assay type: functional; remark: listed apart in the source
[4] = tested on: Streptococcus sp. 'group A'; assay: growth inhibition of control SK(-) GAS strain, dose response, counter-screen for streptokinase expression inhibitor project, luminescence, kanamycin, BacTiterGlo, confirmation (AID 1900); assay type: functional, organism-based
Streptococcus = assay: Group A Streptococcus viability loss, dose response, counter-screen for streptokinase expression inhibitor project, luminescence, BacTiterGlo (AID 1915); assay type: functional, organism-based;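 note: potency for reduction of bacterial viability or growth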
[5] = Luminescence Cell-Based Dose Retest to Confirm Inhibitors of Cancer Stem Cells. [Related pubchem assays (depositor defined):AID2717, AID2721]; assay type: functional; conditions: Homo sapiens
[6] = target: DNA (cytosine-5)-methyltransferase 1 (Homo sapiens, UniProt P26358); assay: DNMT1 methyltransferase inhibitors, confirmation, biochemical, fluorescent molecular beacon (AID 602386); assay type: functional
DNA (cytosine-5)-methyltransferase 1, sequence (P26358 whole entry): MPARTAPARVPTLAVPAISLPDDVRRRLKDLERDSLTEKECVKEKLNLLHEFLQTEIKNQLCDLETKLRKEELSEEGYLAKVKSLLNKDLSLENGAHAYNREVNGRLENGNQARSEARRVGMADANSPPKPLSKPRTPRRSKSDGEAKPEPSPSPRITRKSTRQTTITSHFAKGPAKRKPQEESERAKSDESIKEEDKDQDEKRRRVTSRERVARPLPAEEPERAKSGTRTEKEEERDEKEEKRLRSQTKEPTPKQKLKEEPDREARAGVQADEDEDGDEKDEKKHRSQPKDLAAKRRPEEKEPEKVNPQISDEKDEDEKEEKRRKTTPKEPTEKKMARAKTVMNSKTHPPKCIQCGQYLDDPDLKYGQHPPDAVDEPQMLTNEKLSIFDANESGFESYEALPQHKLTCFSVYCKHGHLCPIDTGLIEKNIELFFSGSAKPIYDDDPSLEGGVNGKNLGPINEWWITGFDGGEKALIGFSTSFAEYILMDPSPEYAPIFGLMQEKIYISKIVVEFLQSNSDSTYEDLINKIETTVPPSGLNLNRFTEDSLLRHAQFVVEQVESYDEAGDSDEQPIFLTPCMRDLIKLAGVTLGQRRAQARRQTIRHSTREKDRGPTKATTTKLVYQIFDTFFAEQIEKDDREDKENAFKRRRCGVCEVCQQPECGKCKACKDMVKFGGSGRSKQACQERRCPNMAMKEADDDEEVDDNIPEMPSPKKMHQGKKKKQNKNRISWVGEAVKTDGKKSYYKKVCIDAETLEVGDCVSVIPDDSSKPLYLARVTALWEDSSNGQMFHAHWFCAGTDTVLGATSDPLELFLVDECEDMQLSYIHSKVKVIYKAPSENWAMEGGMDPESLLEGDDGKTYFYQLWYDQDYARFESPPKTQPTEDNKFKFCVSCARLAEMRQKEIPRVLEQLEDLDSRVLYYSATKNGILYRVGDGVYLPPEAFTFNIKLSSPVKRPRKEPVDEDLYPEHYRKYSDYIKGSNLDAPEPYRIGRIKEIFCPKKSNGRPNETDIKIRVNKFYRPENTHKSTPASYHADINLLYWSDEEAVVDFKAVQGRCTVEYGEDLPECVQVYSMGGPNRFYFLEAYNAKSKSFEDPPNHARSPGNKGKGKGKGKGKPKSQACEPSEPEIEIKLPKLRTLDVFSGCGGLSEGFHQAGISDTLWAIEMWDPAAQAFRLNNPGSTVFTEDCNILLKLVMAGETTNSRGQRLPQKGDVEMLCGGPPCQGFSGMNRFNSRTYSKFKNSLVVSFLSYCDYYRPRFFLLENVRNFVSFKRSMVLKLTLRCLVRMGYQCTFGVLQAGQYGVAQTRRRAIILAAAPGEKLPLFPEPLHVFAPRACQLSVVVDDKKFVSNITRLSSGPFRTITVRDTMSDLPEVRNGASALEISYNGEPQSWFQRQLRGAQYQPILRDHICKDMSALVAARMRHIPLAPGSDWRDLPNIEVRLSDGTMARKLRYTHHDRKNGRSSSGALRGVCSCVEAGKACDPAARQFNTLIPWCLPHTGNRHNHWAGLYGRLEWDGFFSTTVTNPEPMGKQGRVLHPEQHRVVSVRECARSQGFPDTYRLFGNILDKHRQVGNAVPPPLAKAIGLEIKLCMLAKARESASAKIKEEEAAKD

[7] = target: Ras and Rab interactor 1/Tyrosine-protein kinase ABL1 (Homo sapiens, UniProt P00519+Q13671); assay type: functional;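 note: biochemical TR-FRET dose-response test measuring inhibition of binding between Rin1 and Abl proteins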
Ras and Rab interactor 1/Tyrosine-protein kinase ABL1, sequence (P00519 whole entry): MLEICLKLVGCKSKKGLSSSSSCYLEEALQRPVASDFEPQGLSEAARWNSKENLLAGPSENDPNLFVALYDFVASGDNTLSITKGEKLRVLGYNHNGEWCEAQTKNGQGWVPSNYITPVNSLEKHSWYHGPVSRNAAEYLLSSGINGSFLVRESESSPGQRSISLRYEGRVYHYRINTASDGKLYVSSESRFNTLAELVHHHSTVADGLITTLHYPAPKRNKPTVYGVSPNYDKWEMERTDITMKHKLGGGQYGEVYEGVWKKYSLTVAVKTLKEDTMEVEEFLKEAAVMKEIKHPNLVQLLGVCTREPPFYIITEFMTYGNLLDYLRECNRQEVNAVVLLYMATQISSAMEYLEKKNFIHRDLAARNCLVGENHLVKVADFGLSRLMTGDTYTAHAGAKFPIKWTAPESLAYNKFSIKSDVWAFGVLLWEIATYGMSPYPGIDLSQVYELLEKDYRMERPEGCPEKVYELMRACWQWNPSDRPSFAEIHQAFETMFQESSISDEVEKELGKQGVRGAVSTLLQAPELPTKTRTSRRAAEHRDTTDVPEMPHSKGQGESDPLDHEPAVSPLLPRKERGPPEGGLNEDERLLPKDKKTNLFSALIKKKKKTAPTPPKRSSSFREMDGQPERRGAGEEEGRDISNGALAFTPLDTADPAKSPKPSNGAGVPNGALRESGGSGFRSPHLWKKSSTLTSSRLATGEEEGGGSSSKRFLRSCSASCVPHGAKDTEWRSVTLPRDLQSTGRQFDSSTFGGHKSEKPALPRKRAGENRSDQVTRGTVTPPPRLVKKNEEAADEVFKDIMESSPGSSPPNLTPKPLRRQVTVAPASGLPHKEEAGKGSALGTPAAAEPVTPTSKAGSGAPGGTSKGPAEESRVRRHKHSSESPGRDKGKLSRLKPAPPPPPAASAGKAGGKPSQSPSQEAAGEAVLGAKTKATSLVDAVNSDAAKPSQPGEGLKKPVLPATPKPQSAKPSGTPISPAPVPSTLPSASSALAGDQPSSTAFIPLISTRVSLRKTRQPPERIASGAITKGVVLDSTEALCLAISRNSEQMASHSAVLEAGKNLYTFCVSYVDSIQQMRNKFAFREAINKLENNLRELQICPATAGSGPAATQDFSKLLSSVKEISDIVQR
Ras and Rab interactor 1/Tyrosine-protein kinase ABL1, sequence (Q13671 whole entry): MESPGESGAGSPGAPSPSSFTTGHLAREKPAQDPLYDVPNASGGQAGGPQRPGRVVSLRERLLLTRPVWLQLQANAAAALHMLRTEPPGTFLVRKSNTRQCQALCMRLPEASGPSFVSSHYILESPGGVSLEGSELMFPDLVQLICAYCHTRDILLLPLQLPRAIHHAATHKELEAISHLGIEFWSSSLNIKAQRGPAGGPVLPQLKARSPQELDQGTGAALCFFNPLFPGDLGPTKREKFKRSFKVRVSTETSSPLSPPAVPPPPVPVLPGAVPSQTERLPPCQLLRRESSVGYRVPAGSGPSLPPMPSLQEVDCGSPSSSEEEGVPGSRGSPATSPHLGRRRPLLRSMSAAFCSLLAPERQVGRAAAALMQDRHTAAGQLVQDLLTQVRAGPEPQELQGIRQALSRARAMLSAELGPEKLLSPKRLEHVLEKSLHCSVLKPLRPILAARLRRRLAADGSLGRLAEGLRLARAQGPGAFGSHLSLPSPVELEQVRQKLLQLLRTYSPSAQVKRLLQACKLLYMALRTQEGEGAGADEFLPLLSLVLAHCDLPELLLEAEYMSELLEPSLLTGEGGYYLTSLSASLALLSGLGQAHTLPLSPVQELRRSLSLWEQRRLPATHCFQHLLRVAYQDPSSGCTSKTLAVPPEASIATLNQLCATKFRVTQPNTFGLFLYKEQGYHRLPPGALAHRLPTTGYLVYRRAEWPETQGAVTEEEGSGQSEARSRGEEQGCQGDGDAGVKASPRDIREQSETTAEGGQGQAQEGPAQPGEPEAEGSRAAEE

[8] = target: T2, Sentrin-specific protease 8; assay: SENP8 protease inhibitors, SAR follow-up, biochemical, luminescence (AID 504501); assay type: functional
Caspase-3 = target: T3, Caspase-3 (Homo sapiens, UniProt P42574); assay: SAR Analysis of small molecule inhibitors of Sentrin-specific proteases (SENPs) using a Caspase-3 Selectivity assay. [Related pubchem assays (depositor defined):AID2540, AID2599, AID434973, AID489001]; assay type: functional
T3 sequence (P42574 whole entry): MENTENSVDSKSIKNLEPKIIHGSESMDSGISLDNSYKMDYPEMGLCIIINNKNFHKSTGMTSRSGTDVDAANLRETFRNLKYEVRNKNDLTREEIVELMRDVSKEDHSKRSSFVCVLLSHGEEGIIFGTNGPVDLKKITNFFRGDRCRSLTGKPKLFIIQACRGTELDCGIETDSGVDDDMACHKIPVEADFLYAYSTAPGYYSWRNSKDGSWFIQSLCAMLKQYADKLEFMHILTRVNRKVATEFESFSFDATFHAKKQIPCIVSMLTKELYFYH

[9] = target: T4, Sentrin-specific protease 6 (Homo sapiens, UniProt Q9GZR1); assay: SAR Analysis of small molecule inhibitors of Sentrin-specific protease 6 (SENP6) using a Luminescent assay. [Related pubchem assays (depositor defined):AID2582, AID2599]; assay type: functional
T4 sequence (Q9GZR1 whole entry): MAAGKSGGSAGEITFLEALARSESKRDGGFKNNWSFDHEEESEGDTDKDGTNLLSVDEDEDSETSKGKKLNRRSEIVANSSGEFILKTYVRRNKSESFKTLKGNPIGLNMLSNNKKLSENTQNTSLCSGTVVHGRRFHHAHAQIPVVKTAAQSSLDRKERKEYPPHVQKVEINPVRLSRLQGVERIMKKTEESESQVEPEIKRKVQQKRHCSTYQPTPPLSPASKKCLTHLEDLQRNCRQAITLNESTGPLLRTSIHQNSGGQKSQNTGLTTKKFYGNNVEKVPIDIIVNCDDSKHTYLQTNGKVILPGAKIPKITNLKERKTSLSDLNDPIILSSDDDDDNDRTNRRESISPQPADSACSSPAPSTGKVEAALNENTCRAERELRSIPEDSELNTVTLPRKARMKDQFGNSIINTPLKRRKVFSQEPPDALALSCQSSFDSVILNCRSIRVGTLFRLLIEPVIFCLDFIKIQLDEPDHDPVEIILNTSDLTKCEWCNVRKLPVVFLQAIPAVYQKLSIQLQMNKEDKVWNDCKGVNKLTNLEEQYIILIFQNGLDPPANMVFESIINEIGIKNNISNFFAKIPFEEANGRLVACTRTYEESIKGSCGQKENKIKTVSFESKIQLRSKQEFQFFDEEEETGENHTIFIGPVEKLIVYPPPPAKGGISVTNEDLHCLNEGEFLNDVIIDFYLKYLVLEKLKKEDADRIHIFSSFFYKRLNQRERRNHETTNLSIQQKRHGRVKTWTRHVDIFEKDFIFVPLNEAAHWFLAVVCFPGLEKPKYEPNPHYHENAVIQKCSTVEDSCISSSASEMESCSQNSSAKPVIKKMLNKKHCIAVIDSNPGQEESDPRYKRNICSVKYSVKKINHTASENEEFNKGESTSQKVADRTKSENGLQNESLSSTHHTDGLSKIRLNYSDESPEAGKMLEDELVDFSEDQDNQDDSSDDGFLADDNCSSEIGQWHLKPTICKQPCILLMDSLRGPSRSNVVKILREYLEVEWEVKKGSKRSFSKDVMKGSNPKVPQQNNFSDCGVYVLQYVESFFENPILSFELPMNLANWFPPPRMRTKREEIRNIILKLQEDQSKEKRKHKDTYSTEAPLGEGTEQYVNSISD

[10] = target: T5, Sentrin-specific protease 7 (Homo sapiens, UniProt Q9BQF6); assay: SENP7 protease inhibitors, SAR follow-up, biochemical, luminescence (AID 504497); assay type: functional
T5 sequence (Q9BQF6 whole entry): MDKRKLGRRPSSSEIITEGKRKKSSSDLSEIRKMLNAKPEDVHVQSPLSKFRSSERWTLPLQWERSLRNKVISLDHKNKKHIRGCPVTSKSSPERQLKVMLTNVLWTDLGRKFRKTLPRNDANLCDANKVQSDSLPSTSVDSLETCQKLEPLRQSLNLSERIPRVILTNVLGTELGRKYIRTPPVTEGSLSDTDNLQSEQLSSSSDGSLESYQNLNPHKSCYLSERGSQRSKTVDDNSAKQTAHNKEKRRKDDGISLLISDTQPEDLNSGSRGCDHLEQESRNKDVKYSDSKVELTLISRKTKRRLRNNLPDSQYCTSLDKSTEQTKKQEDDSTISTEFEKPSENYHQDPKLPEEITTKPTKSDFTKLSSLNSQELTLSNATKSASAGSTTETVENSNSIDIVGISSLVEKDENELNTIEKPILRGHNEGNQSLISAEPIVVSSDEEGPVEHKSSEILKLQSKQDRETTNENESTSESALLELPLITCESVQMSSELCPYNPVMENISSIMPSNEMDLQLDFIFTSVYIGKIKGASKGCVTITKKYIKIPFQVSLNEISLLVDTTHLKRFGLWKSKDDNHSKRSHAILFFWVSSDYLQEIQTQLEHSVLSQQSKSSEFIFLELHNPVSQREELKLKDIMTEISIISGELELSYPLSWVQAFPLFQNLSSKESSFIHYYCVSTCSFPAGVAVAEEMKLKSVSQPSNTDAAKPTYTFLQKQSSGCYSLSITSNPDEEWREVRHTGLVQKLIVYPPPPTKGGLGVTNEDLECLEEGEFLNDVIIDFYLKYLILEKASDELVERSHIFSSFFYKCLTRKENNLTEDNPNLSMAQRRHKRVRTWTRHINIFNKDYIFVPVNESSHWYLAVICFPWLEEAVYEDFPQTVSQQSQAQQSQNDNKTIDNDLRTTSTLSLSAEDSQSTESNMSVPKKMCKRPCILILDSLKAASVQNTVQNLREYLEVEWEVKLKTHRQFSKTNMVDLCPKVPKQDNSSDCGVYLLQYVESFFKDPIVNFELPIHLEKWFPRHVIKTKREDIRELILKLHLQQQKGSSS

[11] = target: T6, Low molecular weight phosphotyrosine protein phosphatase (Homo sapiens, UniProt P24666); assay type: functional; conditions: read-out: IC50_Mean;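 note: Dose-response confirmation assay measuring inhibition of LMPTP enzyme activity by fluorescence intensity read-out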
T6 sequence (P24666 whole entry): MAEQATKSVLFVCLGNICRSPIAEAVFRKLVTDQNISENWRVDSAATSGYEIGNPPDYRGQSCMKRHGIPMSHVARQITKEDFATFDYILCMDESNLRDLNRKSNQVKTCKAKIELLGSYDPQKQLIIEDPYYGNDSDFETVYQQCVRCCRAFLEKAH

[12] = HepG2 cell cytotoxicity, dose response, cytotoxicity control, ATP luminescence, cherry-pick, set 6 (AID 1053125); assay type: functional, cell-based

COc1ccc(NC(=S)N2CCC(Cc3ccccc3)CC2)cc1
IC50 (Protein Wnt-3a): 25.5 µM (inactive)

CC1=NN(c2ccc(C(F)(F)F)cn2)C(=O)C1
IC50 [1]: 17.7 µM (active)
IC50 [2]: 10.1 µM (active)
IC50 [3]: 15.6 µM (active)

CC(C)COc1ccc(-c2nn(-c3ccccc3)cc2/C=C2/SC(=S)N(CC(=O)O)C2=O)cc1
EC50 [4]: 2.85 µM (active)
EC50 (Streptococcus): 4.38 µM (active)
AC50 [5]: 2.87 µM (active)
IC50 [6]: 5.58 µM (active)

COc1ccccc1CN1C[C@@H]2C[C@@H](c3ccc4nsnc4c3)N3CCC[C@@]23C1=O
IC50 [7]: 22.3 µM (inactive)

CCn1c(/C=C/Nc2ccccc2)[n+](CC)c2cc(Cl)ccc21
IC50 (Protein Wnt-3a): 26.3 µM (inactive)

CSCCC(c1nnnn1C1CCCCC1)N1CCC(n2c(O)nc3ccccc32)CC1 (stereo not given)
IC50 [7]: 6.82 µM (active)

COc1cccc2sc(NC(=O)c3ccc(S(=O)(=O)N(C)C4CCCC4)cc3)nc12
IC50 [8]: > 99 µM (inactive)
IC50 (Caspase-3): > 99 µM (inactive)
IC50 [9]: > 99 µM (inactive)
IC50 [10]: > 99 µM (inactive)

Cc1ccc(N/N=C/c2c[nH]c3ccccc23)cc1
IC50 [8]: 7.41 µM (active)
IC50 (Caspase-3): 6.02 µM (active)
IC50 [9]: 6.76 µM (active)
IC50 [10]: 3.21 µM (active)

COC(=O)c1nn(-c2ccccc2)c2c1C(c1ccc(OC)cc1)(C(F)(F)F)N/C(=N\c1ccc(C)cc1)O2 (stereo not given)
IC50 [8]: > 99 µM (inactive)
IC50 (Caspase-3): > 99 µM (inactive)
IC50 [9]: > 99 µM (inactive)
IC50 [10]: > 99 µM (inactive)

Cc1ccc2nc3c(cc(C(=O)NCc4ccccc4)c(=N)n3CCCn3ccnc3)c(=O)n2c1
IC50 [11]: 29.8 µM (inactive)
AC50 [12]: 48 µM (active)
